# In the supplement of paper PMC10307832:
# What was measured:
# Assay in all cases: relative viability (nuclei count vs DMSO), 5 days (fraction); higher = more cells survive
# A549 = system: A549
# How it was run: (§1)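 Relative viability divides the nuclei count in treated wells by that in vehicle wells. Lung cancer cell lines were seeded in 1536-well plates, dosed by pin tool the next day, and fixed and stained after 5 days in one step with final 0.05% Triton X-100, 1% formaldehyde and 1 ug/ml Hoechst. Dosing was a single drug or a fixed anchor-drug dose plus five library-drug doses (not always all listed) in √10 steps, and values are medians of duplicate plates imaged at 4×.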
# Calu-6 = system: Calu-6
# How it was run: as §1
# EBC-1 = system: EBC-1
# How it was run: as §1
# IA-LM = system: IA-LM
# How it was run: as §1
# LCLC-97TM1 = system: LCLC-97TM1
# How it was run: as §1
# NCI-H1299 = system: NCI-H1299
# How it was run: as §1
# NCI-H1355 = system: NCI-H1355
# How it was run: as §1
# NCI-H1703 = system: NCI-H1703
# How it was run: as §1
# NCI-H1993 = system: NCI-H1993
# How it was run: as §1
# NCI-H23 = system: NCI-H23
# How it was run: as §1
# NCI-H322M = system: NCI-H322M
# How it was run: as §1
# NCI-H596 = system: NCI-H596
# How it was run: as §1
# UMC-11 = system: UMC-11
# How it was run: as §1
smiles,measurement,setting,value
COc1nc(C)cnc1NS(=O)(=O)c1cccnc1-c1ccc(-c2nnco2)cc1 [Zibotentan] + Cc1nc(NC(=O)N2CCC[C@H]2C(N)=O)sc1-c1ccnc(C(C)(C)C(F)(F)F)c1 [Alpelisib] (partner 2 µM),relative viability,A549; first compound 0.08 µM,0.852
same,relative viability,A549; first compound 0.253 µM,0.578
same,relative viability,A549; first compound 0.8 µM,0.704
same,relative viability,A549; first compound 2.53 µM,0.88
same,relative viability,Calu-6; first compound 0.08 µM,1
same,relative viability,Calu-6; first compound 0.253 µM,0.986
same,relative viability,Calu-6; first compound 0.8 µM,0.98
same,relative viability,Calu-6; first compound 2.53 µM,1.1
same,relative viability,EBC-1; first compound 0.08 µM,0.826
same,relative viability,EBC-1; first compound 0.253 µM,0.855
same,relative viability,EBC-1; first compound 0.8 µM,0.944
same,relative viability,EBC-1; first compound 2.53 µM,0.857
same,relative viability,IA-LM; first compound 0.08 µM,0.799
same,relative viability,IA-LM; first compound 0.253 µM,0.725
same,relative viability,IA-LM; first compound 0.8 µM,0.646
same,relative viability,IA-LM; first compound 2.53 µM,0.812
same,relative viability,LCLC-97TM1; first compound 0.08 µM,0.309
same,relative viability,LCLC-97TM1; first compound 0.253 µM,0.238
same,relative viability,LCLC-97TM1; first compound 0.8 µM,0.183
same,relative viability,LCLC-97TM1; first compound 2.53 µM,0.264
same,relative viability,NCI-H1299; first compound 0.08 µM,1.06
same,relative viability,NCI-H1299; first compound 0.253 µM,1.05
same,relative viability,NCI-H1299; first compound 0.8 µM,1.06
same,relative viability,NCI-H1299; first compound 2.53 µM,1.07
same,relative viability,NCI-H1355; first compound 0.08 µM,0.942
same,relative viability,NCI-H1355; first compound 0.253 µM,0.898
same,relative viability,NCI-H1355; first compound 0.8 µM,0.825
same,relative viability,NCI-H1355; first compound 2.53 µM,0.794
same,relative viability,NCI-H1703; first compound 0.08 µM,0.363
same,relative viability,NCI-H1703; first compound 0.253 µM,0.386
same,relative viability,NCI-H1703; first compound 0.8 µM,0.464
same,relative viability,NCI-H1703; first compound 2.53 µM,0.237
same,relative viability,NCI-H1993; first compound 0.253 µM,0.679
same,relative viability,NCI-H1993; first compound 0.8 µM,0.652
same,relative viability,NCI-H1993; first compound 2.53 µM,0.766
same,relative viability,NCI-H23; first compound 0.08 µM,0.679
same,relative viability,NCI-H23; first compound 0.253 µM,0.7
same,relative viability,NCI-H23; first compound 0.8 µM,0.681
same,relative viability,NCI-H23; first compound 2.53 µM,0.726
same,relative viability,NCI-H322M; first compound 0.08 µM,0.692
same,relative viability,NCI-H322M; first compound 0.253 µM,0.704
same,relative viability,NCI-H322M; first compound 0.8 µM,0.719
same,relative viability,NCI-H322M; first compound 2.53 µM,0.905
same,relative viability,NCI-H596; first compound 0.08 µM,0.532
same,relative viability,NCI-H596; first compound 0.253 µM,0.482
same,relative viability,NCI-H596; first compound 0.8 µM,0.485
same,relative viability,NCI-H596; first compound 2.53 µM,0.484
same,relative viability,UMC-11; first compound 0.08 µM,0.861
same,relative viability,UMC-11; first compound 0.253 µM,0.961
same,relative viability,UMC-11; first compound 0.8 µM,0.925
same,relative viability,UMC-11; first compound 2.53 µM,0.971
O=c1cc(-c2cccc3c2Sc2ccccc2S3)oc(N2CCOCC2)c1 + C[C@@H](Oc1cc(-c2cnn(C3CCNCC3)c2)cnc1N)c1c(Cl)ccc(F)c1Cl [Crizotinib] (partner 1 µM),relative viability,A549; first compound 0.08 µM,0.706
same,relative viability,A549; first compound 0.253 µM,1.11
same,relative viability,A549; first compound 0.8 µM,0.765
same,relative viability,A549; first compound 2.53 µM,0.691
same,relative viability,A549; first compound 8 µM,0.578
same,relative viability,Calu-6; first compound 0.08 µM,0.725
same,relative viability,Calu-6; first compound 0.253 µM,0.839
same,relative viability,Calu-6; first compound 0.8 µM,0.969
same,relative viability,Calu-6; first compound 2.53 µM,0.692
same,relative viability,Calu-6; first compound 8 µM,0.733
same,relative viability,EBC-1; first compound 0.08 µM,0.212
same,relative viability,EBC-1; first compound 0.253 µM,0.175
same,relative viability,EBC-1; first compound 0.8 µM,0.156
same,relative viability,EBC-1; first compound 2.53 µM,0.182
same,relative viability,EBC-1; first compound 8 µM,0.26
same,relative viability,IA-LM; first compound 0.08 µM,0.899
same,relative viability,IA-LM; first compound 0.253 µM,0.971
same,relative viability,IA-LM; first compound 0.8 µM,0.847
same,relative viability,IA-LM; first compound 8 µM,0.9
same,relative viability,LCLC-97TM1; first compound 0.08 µM,0.373
same,relative viability,LCLC-97TM1; first compound 0.253 µM,0.408
same,relative viability,LCLC-97TM1; first compound 0.8 µM,0.459
same,relative viability,LCLC-97TM1; first compound 2.53 µM,0.334
same,relative viability,LCLC-97TM1; first compound 8 µM,0.456
same,relative viability,NCI-H1299; first compound 0.08 µM,0.999
same,relative viability,NCI-H1299; first compound 0.253 µM,0.977
same,relative viability,NCI-H1299; first compound 0.8 µM,1
same,relative viability,NCI-H1299; first compound 2.53 µM,0.956
same,relative viability,NCI-H1299; first compound 8 µM,0.835
same,relative viability,NCI-H1355; first compound 0.08 µM,1.08
same,relative viability,NCI-H1355; first compound 0.253 µM,1.16
same,relative viability,NCI-H1355; first compound 0.8 µM,1.04
same,relative viability,NCI-H1355; first compound 2.53 µM,1.06
same,relative viability,NCI-H1355; first compound 8 µM,0.98
same,relative viability,NCI-H1703; first compound 0.08 µM,0.463
same,relative viability,NCI-H1703; first compound 0.253 µM,0.519
same,relative viability,NCI-H1703; first compound 0.8 µM,0.99
same,relative viability,NCI-H1703; first compound 2.53 µM,1.01
same,relative viability,NCI-H1703; first compound 8 µM,0.777
same,relative viability,NCI-H1993; first compound 0.08 µM,0.838
same,relative viability,NCI-H1993; first compound 0.253 µM,1.01
same,relative viability,NCI-H1993; first compound 0.8 µM,0.89
same,relative viability,NCI-H1993; first compound 2.53 µM,0.871
same,relative viability,NCI-H1993; first compound 8 µM,0.99
same,relative viability,NCI-H23; first compound 0.08 µM,0.442
same,relative viability,NCI-H23; first compound 0.253 µM,0.564
same,relative viability,NCI-H23; first compound 0.8 µM,0.626
same,relative viability,NCI-H23; first compound 2.53 µM,0.572
same,relative viability,NCI-H23; first compound 8 µM,0.522
same,relative viability,NCI-H322M; first compound 0.08 µM,0.885
same,relative viability,NCI-H322M; first compound 0.253 µM,0.901
same,relative viability,NCI-H322M; first compound 0.8 µM,1.04
same,relative viability,NCI-H322M; first compound 2.53 µM,0.937
same,relative viability,NCI-H322M; first compound 8 µM,1.08
same,relative viability,NCI-H596; first compound 0.08 µM,0.96
same,relative viability,NCI-H596; first compound 0.253 µM,1.08
same,relative viability,NCI-H596; first compound 0.8 µM,0.982
same,relative viability,NCI-H596; first compound 2.53 µM,0.891
same,relative viability,NCI-H596; first compound 8 µM,0.806
same,relative viability,UMC-11; first compound 0.08 µM,0.729
same,relative viability,UMC-11; first compound 0.253 µM,0.566
same,relative viability,UMC-11; first compound 0.8 µM,0.729
same,relative viability,UMC-11; first compound 2.53 µM,0.644
same,relative viability,UMC-11; first compound 8 µM,0.701
